Reference: US10071965B2, “Pyridone FabI inhibitors and uses thereof” (priority 2015, dated 2018)
Converted amounts (≈) assume the structure as drawn. Like-named read-outs stand apart in the source and are kept apart here.

Columns and labels:
saFabI = saFabI (Staphylococcus aureus (strain MRSA252), UniProt Q6GI75); experiment: saFabI inhibition kinetics; format: biochemical
ecFabI = ecFabI (Escherichia coli (strain K12), UniProt P0AEK4); experiment: ecFabI inhibition kinetics; format: biochemical; settings: Ki^app (nM), [S]/KS = 0.19
[1] = molecular target: M. tuberculosis enoyl-ACP reductase InhA (Mycobacterium tuberculosis (strain ATCC 25618 / H37Rv), UniProt P9WGR1); experiment: InhA inhibition kinetics; format: biochemical
S. aureus RN4220 = experiment: MIC microbroth dilution, S. aureus RN4220; format: cell-based, Staphylococcus aureus; settings: for MIC: Staphylococcus aureus
E. coli MG1655 ΔacrAB = experiment: microbe, parasite or virus in culture; format: cell-based, Escherichia coli
F. tularensis LVS = experiment: microbe, parasite or virus in culture; format: cell-based; settings: Francisella tularensis, read-out: Francisella tularensis MIC (μg/mL) LVS, 2-pyridones table
M. tuberculosis H37Rv = experiment: MIC microbroth dilution, M. tuberculosis H37Rv; format: cell-based; settings: Mycobacterium tuberculosis, H37RV, read-out: Mycobacterium tuberculosis MIC (μg/mL) H37Rv
Bt38 = experiment: microbe, parasite or virus in culture; format: cell-based; settings: Burkholderia pseudomallei, read-out: Burkholderia pseudomallei MIC (μg/mL) Bt38
[2] = molecular target: Francisella tularensis FabI (Francisella tularensis subsp. tularensis (strain SCHU S4 / Schu 4), UniProt Q5NGQ3); experiment: biochemical
bpFabI = bpFabI (Burkholderia pseudomallei, UniProt A0A0H3HP34); experiment: biochemical
YpFabV = YpFabV (Yersinia pestis, UniProt Q8Z9U1); experiment: biochemical
MRSA strain BAA1762 = experiment: Neutropenic mouse thigh infection model; format: in vivo, Swiss Webster mice; settings: MRSA BAA1762, neutropenic mouse thigh, FIG. 8
[3] = Ki^app (nM), saFabI, [S]/KS = 2
[4] = Staphylococcus aureus Ki (in brackets under IC50), 2-pyridones table
[5] = RN4220, S. aureus RN4220, read-out: MIC
[6] = RN4220, 2-pyridones table, read-out: Staphylococcus aureus MIC (μg/mL) RN4220

CCCCCCc1ccn(Cc2cccc(N)c2C)c(=O)c1 [PT173]
IC50 (saFabI): 68 ± 14 nM | Ki (saFabI; Ki (nM), saFabI): 2 ± 0.4 nM | Ki (saFabI; Ki, saFabI): 1.97 nM | Ki (saFabI; [3]): 7.3 ± 1.5 nM | Ki (saFabI; [4]): 2 ± 0.4 nM | Ki (ecFabI): 246 ± 10.1 nM | IC50 [1]: > 3200 nM | MIC (S. aureus RN4220; [5]): 6.7 µM | Escherichia coli MIC (μg/mL) MG1655 ΔacrAB (E. coli MG1655 ΔacrAB; 2-pyridones table): >425 µg/mL | MIC (E. coli MG1655 ΔacrAB; Escherichia coli, MG1655): > 425 µM | MIC (F. tularensis LVS): 3.57 µg/mL (≈ 12 µM) | MIC (M. tuberculosis H37Rv; 2-pyridones table): 50 µg/mL (≈ 168 µM) | MIC (Bt38): 36.3 µg/mL (≈ 122 µM) | IC50 [2]: 83 ± 15 nM | IC50 (bpFabI): 460 ± 10 nM

CCCCCCc1ccn(Cc2cccc([N+](=O)[O-])c2C)c(=O)c1 [PT174]
IC50 (saFabI): 248 ± 20 nM | MIC (S. aureus RN4220; [6]): 50 µg/mL | MIC (F. tularensis LVS): 2.12 µg/mL (≈ 6.46 µM) | MIC (Bt38): 250 µg/mL (≈ 761 µM) | IC50 [2]: 85 ± 11 nM

CCCCCCc1ccn(Cc2cccnc2F)c(=O)c1 [PT175]
IC50 (saFabI): > 1000 nM | IC50 [1]: > 4000 nM | MIC (S. aureus RN4220; [6]): 50 µg/mL | MIC (F. tularensis LVS): 14 µg/mL (≈ 48.4 µM) | MIC (M. tuberculosis H37Rv; 2-pyridones table): 50 µg/mL (≈ 173 µM) | MIC (Bt38): 78.3 µg/mL (≈ 272 µM) | IC50 (bpFabI): > 1000 nM

CCCCCCc1ccn(Cc2ccccc2)c(=O)c1 [PT179]
IC50 (saFabI): 192 ± 30 nM | Ki (saFabI; Ki (nM), saFabI): 19 ± 2.7 nM | Ki (saFabI; [3]): 70.4 ± 9.8 nM | Ki (saFabI; [4]): 19 ± 2.7 nM | MIC (S. aureus RN4220; [6]): 32 µg/mL | MIC (S. aureus RN4220; [5]): 119 µM

CCCCCCc1cc(=O)c(Oc2cccnc2F)cn1C [PT190]
IC50 [1]: 641 ± 55 nM | MIC (M. tuberculosis H37Rv; 4-pyridones table): 25 µg/mL (≈ 82.1 µM)

CCCCCCc1ccc(Oc2ccccc2)c(=O)[nH]1 [PT191]
IC50 (saFabI): > 2000 nM | Ki (saFabI; Ki (nM), saFabI): 196 ± 22.2 nM | Ki (saFabI; [3]): 729 ± 82.4 nM | Ki (saFabI; [4]): 196 ± 22.2 nM | Mycobacterium tuberculosis enzyme, inhibition ([1]; [I] = 2 μM, [E] = 100 nM): 10% | IC50 [2]: > 10000 nM | IC50 (bpFabI): > 3000 nM

CCCCCCc1ccc(Oc2ccccc2C)c(=O)[nH]1 [PT192]
Staphylococcus aureus MIC (μg/mL) RN4220 (S. aureus RN4220; 2-pyridones table): No | MIC (F. tularensis LVS): 9.2 µg/mL (≈ 32.2 µM) | MIC (Bt38): 8.35 µg/mL (≈ 29.3 µM)

CCCCCCc1ccn(Cc2ccccc2C#N)c(=O)c1 [PT420]
IC50 (saFabI): 746 ± 165 nM | Ki (saFabI; Ki (nM), saFabI): 29.6 ± 9.5 nM | Ki (saFabI; [3]): 110 ± 1.7 nM | Ki (saFabI; [4]): 29.6 ± 0.5 nM | MIC (S. aureus RN4220; [6]): 32 µg/mL | MIC (S. aureus RN4220; [5]): 109 µM | MIC (F. tularensis LVS): 10.2 µg/mL (≈ 34.7 µM) | MIC (Bt38): 44.4 µg/mL (≈ 151 µM) | IC50 [2]: 727 ± 84 nM

CCCCCCc1ccn(Cc2cccc(F)c2)c(=O)c1 [PT421]
IC50 (saFabI): 297 ± 64 nM | MIC (S. aureus RN4220; [6]): 2 µg/mL

CCCCCCc1ccn(Cc2ccc(F)cc2)c(=O)c1 [PT422]
IC50 (saFabI): 222 ± 22 nM | MIC (S. aureus RN4220; [6]): 1 µg/mL

CCCCCCc1ccn(Cc2ccccc2F)c(=O)c1 [PT423]
IC50 (saFabI): 165 ± 22 nM | MIC (S. aureus RN4220; [6]): 16 µg/mL

CCCCCCc1ccn(Cc2ccc([N+](=O)[O-])cc2)c(=O)c1 [PT424]
IC50 (saFabI): 1500 ± 200 nM | Ki (YpFabV): 11 µM

CCCCCCc1ccn(Cc2ccc(N)cc2)c(=O)c1 [PT425]
IC50 (saFabI): 380 ± 20 nM | MIC (S. aureus RN4220; [6]): ~32 µg/mL

CCCCCCc1ccn(Cc2ccc(Cl)cc2)c(=O)c1 [PT426]
IC50 (saFabI): 185 ± 18 nM | MIC (S. aureus RN4220; [6]): ~32 µg/mL

CCCCCCc1ccn(Cc2ccc(C(C)=O)cc2)c(=O)c1 [PT427]
IC50 (saFabI): 394 ± 40 nM | MIC (S. aureus RN4220; [6]): > 128 µg/mL

Cc1onc(-c2ccccc2)c1C(=O)N[C@@H]1C(=O)N2[C@@H]1SC(C)(C)[C@@H]2C(=O)O [oxacillin]
in vivo antibacterial efficacy (MRSA strain BAA1762): no in vivo antibacterial efficacy
